Patent US20070128217A1 (priority 2003, published 2007)

Key:
[1] = system: recombinant human anti-SARS-CoV antibody 03-018; assay type: binding; design: Binding of antibody 03-018 to linear peptides of the N protein of SARS-CoV Urbani / Binding of antibody 03-018 to looped/cyclic peptides of the N protein of SARS-CoV Urbani: unit not given here
[2] = system: rabbit serum obtained by immunizing a rabbit with the SARS-CoV strain Frankfurt 1; assay type: binding; design: Binding of a rabbit serum to linear peptides / Binding of a rabbit serum to looped peptides / Rabbit serum linear peptides / Rabbit serum looped peptides / Binding of a rabbit serum to linear peptides of protein N of SARS-CoV Urbani (Rabbit serum linear peptides) / Binding of a rabbit serum to looped/cyclic peptides of protein N of SARS-CoV Urbani (Rabbit serum looped peptides): unit not given here
[3] = system: control sera (pooled serum of ten healthy LUMC hospital workers; commercial negative donor pooled serum from the Dutch bloodbank); assay type: binding, human; design: Binding of Control serum LUMC to linear peptides / Binding of Control serum Blood-bank to linear peptides / Binding of Control serum LUMC to looped peptides / Binding of Control Serum Blood-Bank to Looped peptides / Binding of Control serum LUMC to linear peptides of the protein M of SARS-CoV Urbani / Binding of Control serum Blood-bank to linear peptides of the protein M of SARS-CoV Urbani / Binding of Control serum LUMC to looped peptides of the protein M of SARS-CoV Urbani / Binding of Control Serum Blood-Bank to Looped peptides of the protein M of SARS-CoV Urbani: unit not given here
[4] = system: antibodies in sera from SARS patients (sera 1a, 1b, 2, 6, 37, 62, London, SARS-yellow, SARS-green); assay type: binding, human; design: Binding of serum 6 to linear peptides of protein X1 of SARS-CoV Urbani / Binding of serum 37 to linear peptides of protein X1 of SARS-CoV Urbani / Binding of serum 6 to looped/cyclic peptide (PEPSCAN-ELISA) / Binding of serum 37 to looped/cyclic peptide (PEPSCAN-ELISA) / Binding of serum 37 to looped/cyclic peptides of protein X1 of SARS-CoV Urbani / Binding of serum 6 to linear peptides of protein X2 / Binding of serum 37 to linear peptides of protein X2 / Binding of serum 37 to looped/cyclic peptides of protein X2 of SARS-CoV Urbani / Binding of serum 6 to linear peptides of protein M of SARS-CoV Urbani / Binding of serum 37 to linear peptides of protein M of SARS-CoV Urbani / Binding of serum 6 to looped/cyclic peptides of protein M of SARS-CoV Urbani / Binding of serum 37 to looped/cyclic peptides of protein M of SARS-CoV Urbani / Binding of serum 6 to linear peptides of protein X3 of SARS-CoV Urbani / Binding of serum 37 to linear peptides of protein X3 of SARS-CoV Urbani / Binding of serum 37 to looped/cyclic peptides of protein X3 of SARS-CoV Urbani / Binding of serum 6 to linear peptides of protein X4 of SARS-CoV Urbani / Binding of serum 37 to linear peptides of protein X4 of SARS-CoV Urbani / Binding of serum 37 to looped/cyclic peptides of protein X4 of SARS-CoV Urbani / Binding of serum 6 to linear peptides of protein X5 of SARS-CoV Urbani / Binding of serum 37 to linear peptides of protein X5 of SARS-CoV Urbani / Binding of serum 37 to looped/cyclic peptides of protein X5 of SARS-CoV Urbani / Binding of serum 6 to linear peptides of protein N of SARS-CoV Urbani / Binding of serum 37 to linear peptides of protein N of SARS-CoV Urbani / Binding of serum 6 to linear peptide (PEPSCAN-ELISA) / Binding of serum 1a to looped/cyclic peptides of protein N of SARS-CoV Urbani / Binding of serum 1b to looped/cyclic peptides of protein N of SARS-CoV Urbani / Binding of serum 2 to looped/cyclic peptides of protein N of SARS-CoV Urbani / Binding of serum 6 to looped/cyclic peptides of protein N of SARS-CoV Urbani / Binding of serum 37 to looped/cyclic peptides of protein N of SARS-CoV Urbani / Binding of serum 62 to looped/cyclic peptides of protein N of SARS-CoV Urbani / Binding of serum London to looped/cyclic peptides of protein N of SARS-CoV Urbani / Binding of serum SARS-green to looped/cyclic peptides of protein N of SARS-CoV Urbani: unit not given here

Row | Sequence | Binding of antibody 03-018 to linear peptides of the N protein of SARS-CoV Urbani [1] | Binding of antibody 03-018 to looped/cyclic peptides of the N protein of SARS-CoV Urbani [1] | Binding of a rabbit serum to linear peptides of protein N of SARS-CoV Urbani (Rabbit serum linear peptides) [2] | Binding of a rabbit serum to looped/cyclic peptides of protein N of SARS-CoV Urbani (Rabbit serum looped peptides) [2] | Control Serum Blood-Bank Looped peptides [3] | Control serum Blood-bank linear peptides [3] | Control serum LUMC linear peptides [3] | Control serum LUMC looped peptides [3] | Binding of serum 1a to linear peptides of protein N of SARS-CoV Urbani [4] | Binding of serum 1a to looped/cyclic peptides of protein N of SARS-CoV Urbani [4] | Binding of serum 1b to linear peptides of protein N of SARS-CoV Urbani [4] | Binding of serum 1b to looped/cyclic peptides of protein N of SARS-CoV Urbani [4] | Binding of serum 2 to linear peptides of protein N of SARS-CoV Urbani [4] | Binding of serum 2 to looped/cyclic peptides of protein N of SARS-CoV Urbani [4] | Binding of serum 6 to looped/cyclic peptides of protein N of SARS-CoV Urbani [4] | Binding of serum 37 to looped/cyclic peptides of protein N of SARS-CoV Urbani [4] | Binding of serum 62 to looped/cyclic peptides of protein N of SARS-CoV Urbani [4] | Binding of serum London to looped/cyclic peptides of protein N of SARS-CoV Urbani [4] | Binding of serum SARS-green to looped/cyclic peptides of protein N of SARS-CoV Urbani [4] | Binding of serum SARS-yellow to looped/cyclic peptides of protein N of SARS-CoV Urbani [4] | also measured
1 | TLLPAADMDDFSRQL | 0.1 | 0.1 | 0.1 | 0.0 | 0.5 | 0.7 | 0.8 | 0.4 | 0.3 | 0.4 | 0.2 | 0.2 | 0.2 | 0.5 | 0.1 | 0.4 | 0.1 | 0.2 | 0.0 | 0.4 | Binding of serum 6 to linear peptides of protein N of SARS-CoV Urbani [4]: 0.4; Binding of serum 37 to linear peptides of protein N of SARS-CoV Urbani [4]: 1.0; Binding of serum 62 to linear peptides of protein N of SARS-CoV Urbani [4]: 0.7; Binding of serum London to linear peptides of protein N of SARS-CoV Urbani [4]: 0.6; Binding of serum SARS-green to linear peptides of protein N of SARS-CoV Urbani [4]: 0.7; Binding of serum SARS-yellow to linear peptides of protein N of SARS-CoV Urbani [4]: 0.7
2 | LLLDRLNQLESKVSG | 0.1 | 0.2 | 0.2 | 0.2 |  |  |  |  |  | 0.3 |  | 0.1 |  | 0.4 | 0.1 | 0.5 | 0.3 | 0.3 | 0.6 | 0.2 | Binding of Control Serum Blood-Bank to Looped peptides [3]: 0.5; Binding of Control serum Blood-bank to linear peptides [3]: 0.8; Binding of Control serum LUMC to linear peptides [3]: 0.9; Binding of Control serum LUMC to looped peptides [3]: 0.5; Binding of serum 1a to linear peptide (PEPSCAN-ELISA) [4]: 0.3; Binding of serum 1b to linear peptide (PEPSCAN-ELISA) [4]: 0.2; Binding of serum 2 to linear peptide (PEPSCAN-ELISA) [4]: 0.4; Binding of serum 6 to linear peptide (PEPSCAN-ELISA) [4]: 0.2; Binding of serum 37 to linear peptide (PEPSCAN-ELISA) [4]: 0.8; Binding of serum 62 to linear peptide (PEPSCAN-ELISA) [4]: 0.6; Binding of serum London to linear peptide (PEPSCAN-ELISA) [4]: 0.9; Binding of serum SARS-green to linear peptide (PEPSCAN-ELISA) [4]: 1.1; Binding of serum SARS-yellow to linear peptide (PEPSCAN-ELISA) [4]: 0.7
3 | TEPKKDKKKKTDEAQ | 0.1 | 0.2 | 0.2 | 0.3 | 0.5 | 0.7 | 0.8 | 0.4 | 0.2 | 0.2 | 0.1 | 0.1 | 2.5 | 1.9 | 0.1 | 0.4 | 0.3 | 0.3 | 0.0 | 0.2 | Binding of serum 6 to linear peptides of protein N of SARS-CoV Urbani [4]: 0.2; Binding of serum 37 to linear peptides of protein N of SARS-CoV Urbani [4]: 0.7; Binding of serum 62 to linear peptides of protein N of SARS-CoV Urbani [4]: 0.7; Binding of serum London to linear peptides of protein N of SARS-CoV Urbani [4]: 0.6; Binding of serum SARS-green to linear peptides of protein N of SARS-CoV Urbani [4]: 0.5; Binding of serum SARS-yellow to linear peptides of protein N of SARS-CoV Urbani [4]: 0.6
4 | KQYNVTQAFGRRGPE | 0.1 | 0.1 |  |  |  |  |  |  |  | 0.0 |  | 0.0 |  | 0.1 | 0.2 | 0.0 | 0.0 | 0.2 | 0.4 | 0.0 | Recognition of the peptide by the rabbit serum [2]: recognized; Binding of Control Serum Blood-Bank to Looped peptides [3]: 0.5; Binding of Control serum Blood-bank to linear peptides [3]: 0.6; Binding of Control serum LUMC to linear peptides [3]: 0.7; Binding of Control serum LUMC to looped peptides [3]: 0.5; Binding of serum 1a to linear peptide (PEPSCAN-ELISA) [4]: 0.3; Binding of serum 1b to linear peptide (PEPSCAN-ELISA) [4]: 0.1; Binding of serum 2 to linear peptide (PEPSCAN-ELISA) [4]: 0.1; Binding of serum 6 to linear peptide (PEPSCAN-ELISA) [4]: 0.2; Binding of serum 37 to linear peptide (PEPSCAN-ELISA) [4]: 0.6; Binding of serum 62 to linear peptide (PEPSCAN-ELISA) [4]: 0.7; Binding of serum London to linear peptide (PEPSCAN-ELISA) [4]: 0.5; Binding of serum SARS-green to linear peptide (PEPSCAN-ELISA) [4]: 0.3; Binding of serum SARS-yellow to linear peptide (PEPSCAN-ELISA) [4]: 0.6
